Tests used:
HCV replicon cells = assay: Luciferase activity in HCV replicon cells; type: cell-based; conditions: Hepatitis C virus; 2 μM, 72 hours; FIG. 6; read-out: inhibition of luciferase activity of HCV
Method: Additionally, a series of compounds (WJCPA-1 to WJCPA-135) having the bis-amide structure as a parent structure in common, based on the inhibitory effect of WJCPA-126 against the PPIase activity, were synthesized and their activities were confirmed. Specifically, Huh7-rep cells were treated with each of the compounds at a concentration of 2 μM for 3 days, and the expression level of NS5A was confirmed by performing an immunoblot analysis according to a known method (FIG. 5). The 32 kinds of compounds confirmed to have excellent inhibitory effect especially against the NS5A expression from the immunoblot experiment were measured regarding their inhibitory effect against luciferase activity and the results are illustrated in FIG. 6. In the same manner as in western blot, the HCV replicon cells were treated with each of the compounds at a concentration of 2 μM and incubated for 72 hours, and the total cell lysate of the cultured cells were used for the analyses of western blot and the activity of luciferase.

CypA = biological target: T1, CypA (Homo sapiens, UniProt P62937); assay: PPIase activity of CypA, coupled chymotrypsin analysis; type: biochemical; conditions: FIG. 7a; read-out: IC50 PPIase activity of CypA
T1 construct: GST (N, cleaved yes); made in house; host or cells: E. coli (pGEX-KG)
T1 sequence (P62937 whole entry): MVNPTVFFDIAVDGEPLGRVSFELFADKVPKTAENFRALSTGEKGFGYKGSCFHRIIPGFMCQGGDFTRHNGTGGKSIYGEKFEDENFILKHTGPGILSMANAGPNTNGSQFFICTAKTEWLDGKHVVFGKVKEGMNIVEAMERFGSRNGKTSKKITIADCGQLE
Method: Example 5: Analysis of Peptidyl-Prolyl Cis-Trans Isomerase Activity
The PPIase activity of CypA was determined according to a known method using the coupled chymotrypsin analysis.
The cis-trans isomerization was measured by absorbance at 390 nm in a spectrophotometer. Additionally, the remaining percentage of enzyme activity was measured at different concentrations of the inhibitor to calculate the 50% inhibition concentration (IC50) to the PPIase activity. Data was optimized via graphs by exporting using Graph Pad Prism 5.

SMILES	inhibition at 2 µM (HCV replicon cells) [%]	IC50 (CypA) [µM]
Cc1ccc(C)c(C(=O)N(c2ccc(C(C)C)cc2)C(C(=O)NC2CCCCC2)c2ccc(Cl)cc2)c1 (stereo not drawn) [WJCPA30, N-[(4-chloro-phenyl)-cyclohexylcarbamoyl-methyl]-N-(4-isopropyl-phenyl)-2,5-dimethyl-benzamide]	≤ 80	0.0106
COc1ccc(CCC(=O)N(c2ccc(Br)cc2)C(C(=O)NC2CCCCC2)c2ccc([N+](=O)[O-])cc2)cc1 (stereo not drawn) [WJCPA133, N-(4-bromo-phenyl)-N-[cyclohexylcarbamoyl-(4-nitro-phenyl)-methyl]-3-(4-methoxy-phenyl)-propionamide]		0.0112

Reference: US10064843B2, “Bis-amide derivative and use thereof” (University-Industry Cooperation Group of Kyung Hee …, priority 2013, dated 2018)
